Test results published in US8318664B2, “Unacylated ghrelin fragments as therapeutic agent in the treatment of obesity” (Alize Pharma SAS, priority 2007, dated 2012).
Entries after “also recorded” stand apart in the source; their conditions may differ. Non-standard residues stand in square brackets, D forms with d. No end group written: not given here.

What was measured:
[1] = tested on: hamster HIT-T15 β-cells; test: MTT cell survival assay in HIT-T15 β-cells; format: cell-based
Protocol: MTT experiments were also performed in hamster HIT-T15 β-cells, to test the survival effect of UAG (1-28) or its fragments UAG (1-14), UAG (1-18), UAG (1-5) and UAG (17-28) in serum deprived medium, either alone or with IFN-γ/TNF-α/IL-1β. As for the experiments performed on INS-1E β-cells, the peptides were tested at increasing concentrations, ranging from 0.1 nM to 100 nM.
The survival effect of UAG (6-13), UAG (8-13), UAG (8-12), UAG (8-11), UAG (9-12) and UAG (9-11) was assessed in cytokine-treated HIT-T15 β-cells.
The protective effects of peptides UAG (8-13) and UAG (8-12) were found similar to those of UAG (1-14) and UAG (1-18). A peptide made of the inverse sequence of UAG (1-14) and named UAG (14-1), was used as negative control for these experiments (FIG. 5A). […] These effects were however lower than those of UAG (6-13) (FIG. 5B).
UAG fragments with alanine (Ala) substitutions at different amino acid positions (6 to 13) were tested with regards to their survival effects in HIT-T15 hamster β-cells. The cells were cultured in serum deprived medium, either alone or with IFN-γ/TNF-α/IL-1β. The peptides were tested at the concentrations of 1 nM to 100 nM. […] Under treatment with cytokines, where cell survival was reduced by ≈18% with respect to serum starved conditions, all Ala substitutions, except those at positions 10 and 11, completely reversed cell death and brought the survival rate to levels that were even higher than those under serum-free conditions, at both 1 nM and 100 nM concentrations. These effects were similar to those elicited by the original peptide UAG (6-13) (FIG. 11B).
Particularly, the best effect was exerted by Gly 6-UAG (6-13), whereas the lowest was seen using AcSer 6-UAG (6-13), AcSer 6-(D)Pro 7-UAG (6-13) (FIG. 12B).
(§1) Hamster HIT-T15 insulin-secreting β-cells were obtained and cultured as described (Refs. 14, 4). INS-1E rat β-cells were kindly provided by Prof. Claes B. Wollheim (University Medical Center, Geneva, Switzerland) and cultured as described (Refs. 14, 4). Cell culture reagents were from Invitrogen (Milano, Italy). Cytokines were from Biosource (Invitrogen, Italy).
(§2) Cell survival was assessed by 3-[4,5-dimethylthiazol-2-yl]-2,5diphenyltetrazolium bromide (MTT) as described previously (Ref. 4). Cells were seeded on 96-well plates at a density of 5×10^3 cells/well. After treatments, cells were incubated with 1 mg/ml MTT for ≈1 h. The medium was aspirated, and the formazan product solubilized with 100 μl DMSO. Viability was assessed by spectrophotometry at 570 nm absorbance using a 96-well plate reader.

[2] = tested on: HIT-T15 β-cells; test: Cytokine-induced apoptosis in HIT-T15 β-cells; format: cell-based, hamster; settings: 24 h serum-free medium with IFN-γ/TNF-α/IL-1β, 1, 10, 100 nM
Protocol: HIT-T15 β-cells were cultured for 24 h in serum-free medium, either alone or with IFN-γ/TNF-α/IL-1β. In both cell lines, apoptosis increased under cytokine treatment, with respect to serum starvation alone. […] UAG (14-1), the inverse sequence of UAG (1-14), was used as negative control, whereas UAG (1-28), was used as positive control in each experiment.

[3] = tested on: INS-1E rat β-cells; test: MTT cell survival assay in INS-1E β-cells; format: cell-based; settings: 0.1 nM to 100 nM
Protocol: The peptides were tested at increasing concentrations, ranging from 0.1 nM to 100 nM.
as §1, §2

[4] = tested on: human pancreatic islets; test: MTT cell survival assay in human pancreatic islets; format: cell-based; settings: human islet cells, 1 nM to 100 nM
Protocol: The survival effect of UAG (1-14), UAG (1-18), UAG (1-5) and UAG (17-28), with respect to that of full length UAG (1-28), was assessed in human pancreatic islets by MTT. The peptides were tested in islet cells cultured in serum deprived medium, either alone or with IFN-γ/TNF-α/IL-1β (5 ng/ml each).
Human islets were obtained from pancreases of multiorgan donors as described (Ref. 4). Islet preparations with purity >70%, not suitable for transplantation, were provided by European Consortium for Islet Transplantation (ECIT) “Islets for Research Distribution Program,” Transplant Unit, Scientific Institute San Raffaele, Vita-Salute University, Milan. Islets (10,000) were cultured in CMRL (Invitrogen) with 10% FBS.
as §2

[5] = tested on: C57BL/6J male mice on high fat diet; test: High fat diet (HFD) pre-diabetic/onset obesity model in C57BL/6J mice; format: in vivo, mouse
Protocol: In order to assess the effects of UAG and cyclic UAG (6-13) on the metabolic responses to a high fat diet, ten (10) week old C57BL/6J male mice were allowed to acclimatize in the animal facility for 1 week. The mice were fed a standard chow (also referred herein as “normal diet” or “ND”, 9% kcal fat) and were maintained in 12 hour:12 hour light:dark conditions at 21° C. (FIG. 17).
At 11 weeks, the mice were separated into 2 different streams (n=10): the first stream consisted in 4 weeks of normal diet and the second stream consisted in 2 weeks of normal diet followed by 2 weeks of high fat diet (also referred herein as “HFD”, 41% kcal fat) with Intraperitoneal Glucose Tolerance Testing (IPGTT) (also referred herein as “IPGTT”) and Intraperitoneal Insuline Tolerance Testing (also referred herein as “IPITT”). Baseline 24 h food intake and IPGTTs were run before pump implantation (FIG. 17).
Alzet 1004 micro-osmotic pumps containing saline, UAG or cyclic UAG (6-13) were implanted at week 0 of the procedure depicted in FIG. 17 in the mice of the two streams (sc., interscapular) under isoflurane anesthesia and peri-operative carprofen analgesia (5 mg/kg sc.). UAG or cyclic UAG (6-13) peptides were infused at 4 nmol/kg/hr.
Body weight and 24 h food intake were measured weekly for 4 weeks and IPGTTs were performed bi-weekly for 4 weeks. […] The suppression in body weight gain observed in peptide-treated mice can therefore not be explained by a reduced food intake.
GTTs were performed following a 6 h fast starting at 8 am, then ˜100 μl of blood was collected from the tail vein (t=0) for measurement of insulin under fasting conditions (no anesthesia). Mice were injected ip. with 2 g/kg glucose in saline solution. Glucose was then measured using a glucometer using ˜0.5 μl of tail vein blood at t=0, 15, 30, 45, 60 and 120 minutes. During the GTT at wk 4 samples of ˜25 μl of tail vein blood were also collected at 15, 30 and 120 minutes for insulin determination.
The day after the final IPGTT, mice were fasted for 4 h starting at 8 am, then injected with human insulin (Actrapid, Novo Nordisk) at 0.5 IU/kg. Glucose in tail vein blood (˜0.5 μl) was measured with a glucometer at t=0, 15, 30, 45, 60 and 120 minutes (no anesthesia).
Tail vein blood glucose was measured by glucometer biweekly from free-fed mice in the non-IPGTT experimental streams (no anesthesia).

[6] = tested on: UAG receptor on INS-1E pancreatic β-cells; test: Competition with [125I-Tyr4]-UAG for binding sites on INS-1E membranes; set-up: species or system rat
Protocol: (§3) The ability of the fragment UAG (6-13) to compete in a concentration-dependent manner with [^125I-Tyr^4]-UAG for HIT-T15 (FIG. 10A) and INS-1E (FIG. 10B) binding sites was assayed. As shown in FIGS. 10A and 10B, unlabelled UAG (1-28) and UAG (6-13) competed with a similar efficacy and in a concentration-dependent fashion with [^125I-Tyr^4]-UAG for such binding sites in both cell lines.
(§4) Membranes from hamster HIT-T15 and rat INS-1E pancreatic β-cells were prepared and assayed for the presence of [^125I-Tyr^4]-UAG binding. The ability of UAG fragments to compete with the radioligand for such binding sites has been evaluated as previously described (Ref. 4). Data are presented as mean±S.E.M. of three independent experiments.

[7] = tested on: UAG receptor on HIT-T15 pancreatic β-cells; test: Competition with [125I-Tyr4]-UAG for binding sites on HIT-T15 membranes; set-up: species or system hamster
Protocol: as §3, §4

[8] = serum deprived medium with IFN-γ/TNF-α/IL-1β
[9] = serum deprived medium with IFN-γ/TNF-α/IL-1β (5 ng/ml each)

Question: How did the “cell survival (MTT)” value [1, 8] turn out when “Ac-Ser-Pro-Glu-His-Gln-Arg-Val-Gln-NH2 (Ac-SPEHQRVQ-NH2; listed as Homo sapiens) [AcSer 6-UAG (6-13)]” was run?
Answer: The value was “lowest”.

Question: For “Ac-Ser-pro-Glu-His-Gln-Arg-Val-Gln-NH2 (Ac-S[dP]EHQRVQ-NH2; listed as Homo sapiens) [AcSer 6-(D)Pro 7-UAG (6-13)]”, which “cell survival (MTT)” value [1, 8] is on record?
Answer: Its value is “lowest”.

Question: What does the source list for EHQRVQ [UAG (8-13)]?
Answer: antiapoptotic effect (cytokine-induced apoptosis) [2]: significantly inhibited apoptosis at 10 and 100 nM; also recorded: strongest antiapoptotic effect; cell survival (MTT) [1, 8]: significant protective effect at all the concentrations examined; also recorded: strongly effective in increasing survival

Question: Which results are given for ESKKPPAKLQPR [UAG (17-28)]?
Answer: cell survival (MTT) ([3]; serum deprived medium alone): reduced, although significant, survival action; also recorded: only a trivial effect; cell survival (MTT) [3, 8]: reduced effect; also recorded: only a trivial effect; cell survival (MTT) ([1]; serum deprived medium alone): no significant effect; also recorded: very little effect; cell survival (MTT) [1, 8]: no significant effect; also recorded: very little effect; cell survival (MTT) ([4]; serum deprived medium alone): significantly increased survival of islet cells; cell survival (MTT) [4, 9]: had no effect

Question: How did the “cell survival (MTT)” value [1, 8] turn out when “Glu-His-Gln-Arg (EHQR; listed as Homo sapiens) [UAG (8-11)]” was run?
Answer: The value was “significant survival effect only at 100 nM”.

Question: Which results are given for “Glu-His-Gln-Arg-Val (EHQRV; listed as Homo Sapiens) [UAG (8-12)]”?
Answer: antiapoptotic effect (cytokine-induced apoptosis) [2]: some protective effect only at 100 nM; also recorded: strongest antiapoptotic effect; cell survival (MTT) [1, 8]: strongly effective in increasing survival

Question: “Gly-Pro-Glu-His-Gln-Arg-Val-Gln-NH2 (GPEHQRVQ-NH2; listed as Homo sapiens) [Gly 6-UAG (6-13)]” was tested. Which “cell survival (MTT)” value [1, 8] did it give?
Answer: The value was “best effect”.

Question: With “Gly-Ser-Ser-Phe-Leu (GSSFL; listed as Homo sapiens) [UAG (1-5)]” as the substance, how does the “cell survival (MTT)” value ([3]; serum deprived medium alone) read?
Answer: The value was “reduced, although significant, survival action; also recorded: only a trivial effect”.

Question: And the “cell survival (MTT)” value [3, 8]?
Answer: The value was “reduced effect; also recorded: only a trivial effect”.

Question: And the “cell survival (MTT)” value ([1]; serum deprived medium alone)?
Answer: Its value is “very little effect”.

Question: What about the “cell survival (MTT)” value [1, 8] of the same substance?
Answer: Its value is “slightly increased cell survival; also recorded: very little effect”.

Question: And the “cell survival (MTT)” value ([4]; serum deprived medium alone)?
Answer: The value was “little, although significant survival action at 10 nM”.

Question: And the “cell survival (MTT)” value [4, 9]?
Answer: Its value is “no cell protection”.

Question: His-Gln-Arg [UAG (9-11)] was tested. Which “cell survival (MTT)” value [1, 8] did it give?
Answer: Its value is “no significant effect at both concentrations tested”.

Question: “His-Gln-Arg-Val (HQRV; listed as Homo sapiens) [UAG (9-12)]” was tested. Which “cell survival (MTT)” value [1, 8] did it give?
Answer: The value was “significantly increased cell survival at both the concentrations tested”.

Question: How did the body weight gain ([5]; HFD, 4 nmol/kg/hr sc. infusion, compared to saline-HFD) turn out when “Ser-Pro-Glu-His-Gln-Arg-Val-Gln (cyclic) (SPEHQRVQ; cyclic; (1)..(8) Cyclic; listed as Homo sapiens) [cyclic UAG (6-13)]” was run?
Answer: The body weight gain was “suppressed body weight gain”.

Question: What about the “glucose levels in fasting or fed state” value ([5]; HFD, pre-diabetic, normoglycemic conditions) of the same substance?
Answer: The value was “does not significantly affect glucose levels”.

Question: And the “HFD-induced insulin resistance (insulin tolerance test, area above the glucose curve)” value ([5]; IPITT, HFD)?
Answer: The value was “restores insulin resistance to a level that is comparable to ND control”.

Question: What about the “HFD-induced glucose intolerance (IPGTT)” value ([5]; after 2 weeks on the HFD) of the same substance?
Answer: Its value is “prevents glucose intolerance”.

Question: What about the “reduction of eWAT normalized for body weight” value ([5]; at 4 weeks, HFD) of the same substance?
Answer: The value was “about 28%”.

Question: And the “weight of epididymal white adipose tissue (eWAT)” value ([5]; at 4 weeks, HFD)?
Answer: The value was “lower than that of the control mice fed on the HFD”.

Question: Which results are given for “UAG (1-13): fragment named only in b101 as binding to the UAG receptor; possibly a misprint (GSSFLSPEHQRVQ)”?
Answer: binding to the UAG receptor [6]: recognized and bound; binding to the UAG receptor [7]: recognized and bound
